Experimental data as given in the OPERA property sets (Mansouri et al. 2018).

Conditions: not given

| Structure (SMILES) | boiling point [°C] | log10 vapour pressure (mmHg) | melting point [°C] | ready biodegradability | log10 Koc (L/kg) | log10 Henry constant (atm·m³/mol) | log10 Koa |
| --- | --- | --- | --- | --- | --- | --- | --- |
| COC(=O)CCC(=O)OC | 196 | -0.387 | 19 | readily biodegradable |  |  |  |
| CCCCCCC(C)O (racemic) | 179 |  | 3.5 |  |  |  |  |
| Cc1cc(Cl)c(Cl)c(Cl)c1 | 246 |  | 45.5 |  |  |  |  |
| Nc1cccc(-n2ccccc2=O)c1 |  |  | 183 |  |  |  |  |
| CC(Cl)CC(C)Cl (stereo not drawn) | 145 |  |  |  |  |  |  |
| O=C(OCC(O)CO)c1ccccc1Nc1ccnc2cc(Cl)ccc12 (stereo not drawn) |  |  | 170 |  |  |  |  |
| O=C(c1ccccc1)c1ccccc1C(F)(F)F |  |  | 61 |  |  |  |  |
| CC/C=C/CCCCC | 148 |  |  |  |  |  |  |
| CC(=O)Nc1cccc(C)c1 | 303 |  | 65.5 |  | 1.45 |  |  |
| O=C1c2ccccc2C(=O)N1c1ccccc1 |  |  | 210 |  |  |  |  |
| C=CCC(C(=O)O)C(=O)O |  |  | 105 |  |  |  |  |
| CCC(C)(C)C(C)(C)C | 140 | 0.976 | -9.8 |  |  |  |  |
| CCCCCCC(C)O (stereo not drawn) |  | -0.616 |  | readily biodegradable |  | -3.91 |  |
| C=C(CC)C(=O)c1ccc(OCC(=O)O)c(Cl)c1Cl |  |  | 122 |  |  |  |  |
| O=C(CCCl)NCc1ccccc1 |  |  | 94 |  |  |  |  |
| CC(C)(C(=O)O)n1nnc2ccccc21 |  |  | 182 |  |  |  |  |
| Cc1occc(=O)c1O |  |  | 162 |  |  |  |  |
| C1=CCC(c2ccncc2)CC1 (stereo not drawn) | 226 |  | 22.1 |  |  |  |  |
| CCCCCCCC/C=C\CCCCCCCC(=O)OC |  | -5.2 | -19.9 | readily biodegradable |  |  |  |
| O=C(O)Cc1cccc(Br)c1 |  |  | 101 |  |  |  |  |
| O=c1c(-c2ccccc2)c1-c1ccccc1 |  |  | 119 |  |  |  |  |

| Structure (SMILES) | boiling point [°C] | log10 vapour pressure (mmHg) | melting point [°C] | ready biodegradability | log10 Koc (L/kg) | log10 Henry constant (atm·m³/mol) | log10 Koa |
| --- | --- | --- | --- | --- | --- | --- | --- |
| COc1ccccc1[N+](=O)[O-] | 277 | -2.44 | 10.5 | not readily biodegradable |  |  |  |
| CNC[C@H](O)c1ccccc1 |  |  | 44 |  |  |  |  |
| O=Cc1ccccc1Cl | 212 | -0.638 | 12.4 | not readily biodegradable |  |  |  |
| CCCC(CCC)C(N)=O |  |  | 125 |  |  |  |  |
| C#CC(C)(C)NC(=O)c1ccc(C(C)C)cc1 |  |  |  |  | 2.17 |  |  |
| CC(C)CCSSCCC(C)C | 247 |  |  |  |  |  |  |
| CC(C)NC(C)(C)C | 98 |  |  |  |  |  |  |
| Clc1ccc2cc(Cl)c(Cl)c(Cl)c2c1 |  |  |  |  |  |  | 8.35 |
| CCCOC(=O)C(=O)OCCC | 211 |  | -44.3 |  |  |  |  |
| O=C(CCCN1CCC(O)(c2ccc(Br)cc2)CC1)c1ccc(F)cc1 |  |  | 155 |  |  |  |  |
| CCOc1ccc2ccccc2c1 | 282 |  | 37.5 |  |  |  |  |
| O=C(O)CCCCCCCF |  |  | 35 |  |  |  |  |
| Nc1ccc(-c2ccc(N)cc2Cl)c(Cl)c1 |  |  | 165 |  |  |  |  |
| C=Cc1ccc(C(=O)O)cc1 |  |  | 144 |  |  |  |  |
| O=C(NC(Cc1ccccc1)c1ccccc1)c1cccnc1 (stereo not drawn) |  |  | 159 |  |  |  |  |
| Cc1nc2cc(-c3ccccc3)ccc2o1 |  |  | 63 |  |  |  |  |
| Clc1ccc(Cl)c(-c2ccc(Cl)c(Cl)c2Cl)c1 |  | -4.77 |  |  | 4.62 | -4.13 |  |
| CC(=O)N1CCCCC1 | 226 |  | -13.4 |  |  |  |  |
| CC(C)Nc1nc(Cl)nc(NC2CC2)n1 |  | -6.52 | 167 |  |  |  |  |
| CCCCCCCCCCCCCCCCCC(=O)OCCC |  |  | 28.9 |  |  |  |  |
| CCC1NC(=O)c2cc(S(N)(=O)=O)c(Cl)cc2N1 (stereo not drawn) |  |  | 251 |  |  |  |  |

| Structure (SMILES) | boiling point [°C] | log10 vapour pressure (mmHg) | melting point [°C] | ready biodegradability | log10 Koc (L/kg) | log10 Henry constant (atm·m³/mol) | log10 Koa |
| --- | --- | --- | --- | --- | --- | --- | --- |
| CCCOC(C)C | 83 |  |  |  |  |  |  |
| CC(=O)NC(=O)NC(C)=O |  |  | 154 |  |  |  |  |
| O=C(O)c1cccc(Cl)c1Cl |  | -3.64 | 169 |  |  |  |  |
| CCN(CCO)CCn1c(Cc2ccccc2)nc2c1c(=O)n(C)c(=O)n2C |  |  | 80 |  |  |  |  |
| CC(=O)O[C@@H]1C[C@H](C)CC[C@H]1C(C)C (racemic) | 228 | -0.983 |  |  |  |  |  |
| COc1cccc(Nc2ccccc2)c1 |  |  | 73 |  |  |  |  |
| CC(C)=C(C)C(C)C | 116 | 1.35 | -113 |  |  |  |  |
| O=S(=O)(O)C(F)(F)C(F)(F)C(F)(F)C(F)(F)C(F)(F)F | 225 |  |  |  |  |  |  |
| C1CCC(CCCC2CCCC2)CC1 | 270 |  |  |  |  |  |  |
| BrCCCCCCCCCCCCBr |  |  | 41 |  |  |  |  |
| O=C1OC(=O)c2c(Cl)c(Cl)c(Cl)c(Cl)c21 |  |  | 254 | not readily biodegradable |  |  |  |
| CCCCCCCCCCCCCC(=O)OCC | 295 |  | 12.3 |  |  |  |  |
| ClC1=C(Cl)C2(Cl)[C@@H]3C[C@@H](Cl)[C@@H](Cl)[C@@H]3C1(Cl)C2(Cl)Cl (mixture of isomers) |  |  |  |  |  |  | 8.89 |
| CN(C)c1ccc(N=NS(=O)(=O)O)cc1 |  |  |  |  | 1.18 |  |  |
| Cc1ccc(Nc2ccc(C)cc2)cc1 | 330 |  | 79.8 |  |  |  |  |
| Cn1nc2ccc(NC(=O)c3ccccc3)cc2n1 |  |  | 166 |  |  |  |  |
| O=C(NCO)NS(=O)(=O)c1ccc(NC(=O)c2ccccc2C(=O)O)cc1 |  |  | 162 |  |  |  |  |
| CC(=O)C(Cl)Cl | 120 | 1.43 |  |  |  |  |  |
| O=C(O)CCCCCCCCCCCCCCCO |  |  | 98 |  |  |  |  |

Same assay, conditions: fish

| Structure (SMILES) | log10 BCF | log10 biotransformation half-life (days) |
| --- | --- | --- |
| N#Cc1c(Cl)c(Cl)c(Cl)c(C#N)c1Cl | 1.8 | 0.27 |
| c1ccc2c(c1)ccc1nc3c(ccc4ccccc43)cc12 | 2.03 | -0.14 |
| COc1ccccc1[N+](=O)[O-] | 0.7 | -1.04 |
| Clc1ccc(Cl)c(-c2ccc(Cl)c(Cl)c2Cl)c1 | 5.38 | 2.31 |
